Reference: the NIST ThermoML archive (doi:10.1021/acs.jced.7b00440)
Numbers after ± are expanded uncertainties.

Settings: 100 kPa, Liquid; for viscosity: Capillary tube (Ostwald / Ubbelohde) method; for mass density: Vibrating tube method

SMILES | viscosity (293.15 K) [mPa·s] | mass density (293.15 K) [kg/m3] | viscosity (298.15 K) [mPa·s] | mass density (298.15 K) [kg/m3] | viscosity (303.15 K) [mPa·s] | mass density (303.15 K) [kg/m3] | viscosity (308.15 K) [mPa·s] | mass density (308.15 K) [kg/m3] | viscosity (313.15 K) [mPa·s] | mass density (313.15 K) [kg/m3] | viscosity (318.15 K) [mPa·s] | mass density (318.15 K) [kg/m3] | viscosity (323.15 K) [mPa·s] | mass density (323.15 K) [kg/m3] | viscosity (328.15 K) [mPa·s] | mass density (328.15 K) [kg/m3] | viscosity (333.15 K) [mPa·s] | mass density (333.15 K) [kg/m3]
CC(C)CO [2-methyl-1-propanol] | 4.077 ± 0.079 | 801.98 ± 0.27 | 3.394 ± 0.066 | 798.13 ± 0.27 | 2.949 ± 0.057 | 794.24 ± 0.27 | 2.54 ± 0.049 | 790.29 ± 0.27 | 2.208 ± 0.043 | 786.3 ± 0.27 | 1.855 ± 0.036 | 782.24 ± 0.27 | 1.621 ± 0.032 | 778.12 ± 0.27 | 1.425 ± 0.028 | 773.92 ± 0.27 | 1.25 ± 0.024 | 769.65 ± 0.27
CCCCO [butan-1-ol] | 2.97 ± 0.056 | 809.01 ± 0.2 | 2.547 ± 0.048 | 805.87 ± 0.2 | 2.237 ± 0.042 | 802.06 ± 0.21 | 1.98 ± 0.038 | 798.18 ± 0.21 | 1.757 ± 0.033 | 794.26 ± 0.21 | 1.568 ± 0.03 | 790.3 ± 0.21 | 1.404 ± 0.027 | 786.29 ± 0.21 | 1.255 ± 0.024 | 782.02 ± 0.21 | 1.132 ± 0.022 | 777.81 ± 0.21
CCC(C)O (centres undefined) [butan-2-ol] | 3.742 ± 0.071 | 807.17 ± 0.2 | 3.093 ± 0.059 | 803.05 ± 0.21 | 2.579 ± 0.049 | 798.85 ± 0.21 | 2.147 ± 0.041 | 794.55 ± 0.21 | 1.826 ± 0.035 | 790.16 ± 0.21 | 1.555 ± 0.03 | 785.66 ± 0.21 | 1.337 ± 0.025 | 781.05 ± 0.21 | 1.142 ± 0.022 | 776.34 ± 0.21 | 0.992 ± 0.019 | 771.51 ± 0.21
